US6294526A, “Use of flavone derivatives for induction of β-lactam-sensitivity of MRSA” (priority 1998, dated 2001)
Values after ≈ are worked out from the molar mass of the structure shown. Like-named read-outs stand apart in the source and are kept apart here.

Key:
MRSA or MSSA = assay: inhibition of methicillin resistance by flavone derivatives, MRSA or MSSA; format: cell-based, Staphylococcus aureus; settings: methicillin with flavone derivative, Table 4
Protocol: (§1) The screening of the present invention may be carried out according to the agar plate dilution method designated by the Japan Society of Chemotherapy (Chemotherapy 29(1), 76-79 (1981)). Mueller-Hinton agar base semi-synthetic medium may be used for a plate culture medium for a sensitivity test together with an inoculating bacteria solution which may be prepared by culturing bacteria to be tested at 37° C. for 20 hours diluted with 8.5% by isotonic sodium chloride solution to 10^6 CFU/ml. Diluted β-lactam solutions are prepared by two times serial dilution. 1 ml of the diluted β-lactam solution and 1 ml of a predetermined concentration of a sample to be tested are added to 8 ml of the plate culture medium for a sensitivity test. […]
(§2) Mueller-Hinton agar base semi-synthetic medium was used as a plate culture medium for the sensitivity test, and an inoculating bacteria solution was prepared by culturing bacteria to be tested at 37° C. for 20 hours and diluting with 8.5% by weight isotonic sodium chloride solution to a final concentration of 10^6 CFU/ml. […] To the resultant plate culture medium for the sensitivity test, the inoculating bacteria were inoculated using a microplanter (SAKUMASEISAKUSYO Co.), cultured for 20 hours at 37° C. and then minimum inhibition concentration (MIC) was assessed.

MSSA [1] = assay: antibacterial activity (MIC) by agar plate dilution method, MSSA strains; format: cell-based, Methicillin-sensitive Staphylooccus aureus; settings: Staphylococcus aureus, 20 h, MSSA (7 strains); for MIC50: read-out: MIC50; for MIC: MSSA, range over strains, read-out: MIC
Protocol: (§3) The screening of the present invention may be carried out according to the agar plate dilution method designated by the Japan Society of Chemotherapy (Chemotherapy 29(1), 76-79 (1981)). Mueller-Hinton agar base semi-synthetic medium may be used for a plate culture medium for a sensitivity test together with an inoculating bacteria solution which may be prepared by culturing bacteria to be tested at 37° C. for 20 hours diluted with 8.5% by isotonic sodium chloride solution to 10^6 CFU/ml. Diluted β-lactam solutions are prepared by two times serial dilution. 1 ml of the diluted β-lactam solution and 1 ml of a predetermined concentration of a sample to be tested are added to 8 ml of the plate culture medium for a sensitivity test. To the resultant plate culture medium for sensitivity test, the bacteria are inoculated using a microplanter (SAKUMASEISAKUSYO Co.), cultured for 20 hours at 37° C. followed by assessing for a minimum inhibition concentration (MIC).
(§4) (A) Antibacterial activities of ether extract from Scutellaria barbata, SB-1 (isolated from Scutellaria barbata), apigenin (authentic sample) and luteolin (authentic sample) were shown in Table 1.
(§5) Flavones were dissolved in methanol and the others were dissolved in 0.1 N NaOH. A method for determination of antibacterial activity is, as described above, an agar plate dilution method designated by the Japan Society of Chemotherapy (Chemotherapy 29(1), 76-79 (1981)) to determine MIC value. MIC80 is a concentration at which a strain is prohibited to proliferate by 80% and MIC50 is a concentration at which a strain is prohibited to proliferate by 50%.

MRSA [2] = assay: antibacterial activity (MIC) by agar plate dilution method, MRSA strains; format: cell-based, methicillin-resistant Staphylococcus aureus; settings: Staphylococcus aureus, 20 h, MRSA (20 strains); for MIC50: read-out: MIC50; for MIC: MRSA, range over strains, read-out: MIC
Protocol: as §3, §4, §5

MRSA [3] = assay: antibacterial activity of methicillin in the presence of flavone derivatives, MRSA; format: cell-based, methicillin-resistant Staphylococcus aureus
Protocol: as §1, §2

MSSA [4] = assay: antibacterial activity of methicillin in the presence of flavone derivatives, MSSA; format: cell-based, Methicillin-sensitive Staphylooccus aureus; settings: Staphylococcus aureus, 20 h; methicillin alone; MSSA (7 strains)
Protocol: as §1, §2

MRSA No. 5 [5] = assay: effect of flavone on antibacterial activity of antibiotics against MRSA No. 5 in bouillon (broth microdilution); format: cell-based, methicillin-resistant Staphylococcus aureus; settings: for MIC: Staphylococcus aureus, MRSA, 20 h, read-out: antibacterial activity of methicillin against MRSA No. 5
MRSA No. 5 [6] = assay: as above; format: cell-based, methicillin-resistant Staphylococcus aureus; settings: for MIC: Staphylococcus aureus, MRSA, 20 h, read-out: MIC
Protocol: Alternatively, the screening of the present invention may be carried out according to the broth microdilution method designated by the Japan Society of Chemotherapy (Chemotherapy 38(1), 102-105 (1990)). Muellar-Hinton broth is used as a culture medium for the sensitivity test, and 50 mg/ml of calcium(Ca) ion, 25 mg/ml of magnesium(Mg) ion, and 2% sodium chloride (NaCl) are added thereto. An inoculating bacteria solution may be prepared by culturing bacteria to be tested in Mueller-Hinton broth at 37° C. for 20 hours and diluting with Mueller-Hinton broth to 10^5 CFU/ml final concentration of inoculating bacteria. Diluted β-lactam solution is prepared by two times serial dilution series. 10 μl of the diluted β-lactam solution and 10 μl of a predetermined concentration of a sample of bacteria to be tested are added to mix with 80 μl of the culture medium for the sensitivity test. To the resultant plate culture medium for sensitivity test, the inoculating bacteria are added and culturing is carried out for 20 hours at 37° C. and then assessment for a minimum inhibition concentration (MIC) is carried out. A minimum inhibition concentration means the minimum concentration of β-lactam at which growth of bacteria is not recognized by the naked eye.
(G) Antibacterial activity of 6 β-lactams, that is, cephalothin, cefuroxime, cefotaxime, cefoxitin, streptomycin and vancomycin, against MRSA in the presence of 0.5 mM flavone was studied in bouillon.
Muellar-Hinton broth was used as a culture medium for the sensitivity test, and 50 mg/ml of calcium (Ca) ion, 25 mg/ml of maqnesium (Mg) ion, 2% sodium chloride (NaCl) were added thereto. An inoculating bacteria solution was prepared by culturing bacteria to be tested with Mueller-Hinton broth at 37° C. for 20 hours and diluting with Mueller-Hinton broth to 10^5 CFU/ml final concentration of inoculating bacteria. Diluted β-lactam solutions were prepared in two times serial dilutions starting from 10 mM. Ten microliters of the diluted β-lactam solution and 10 μl of 5 mM of flavone were mixed with 80 μl of the culture medium for the sensitivity test in a microplate having U-shaped wells and samples of bacteria to be tested were added thereto. The mixture was cultured 20 hours at 37° C. and then assessed for minimum inhibition concentration (MIC). Minimum inhibition concentration means minimum concentration of a β-lactum at which growth of bacteria is inhibited to the extent that bacteria is not recognized by the naked eye.

MRSA [7] = assay: antibacterial activity of antibiotics alone and in the presence of apigenin (4 μg/ml), MRSA; format: cell-based, methicillin-resistant Staphylococcus aureus; settings: for MIC50: MRSA
Method in brief: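 MICs were determined by agar plate dilution on Mueller-Hinton medium with two-fold serial antibiotic dilutions, alone or together with apigenin at 4 μg/ml. The MRSA inoculum was 10^6 CFU/ml. Plates were incubated at 37 °C for 20 h.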

O=C1c2c(O)cc(O)cc2O[C@H](c2ccc(O)c(O)c2)[C@H]1O [(+)-Taxifolin, (+)-taxifolin]
inhibition of resistance to methicillin (in words) (MRSA or MSSA): inhibited resistance to methicillin
MIC50 (MSSA [1]): > 250 µg/mL
MIC (MSSA [1]): > 250 µg/mL
MIC50 (MRSA [2]): > 250 µg/mL
MIC (MRSA [2]): > 250 µg/mL

O=c1cc(-c2ccccc2)oc2ccccc12 [Flavone, flavone]
inhibition of resistance to methicillin (in words) (MRSA or MSSA): inhibited the most strongly
MIC50 (MSSA [1]): > 250 µg/mL
MIC (MSSA [1]): > 250 µg/mL
MIC50 (MRSA [2]): > 250 µg/mL
MIC (MRSA [2]): > 250 µg/mL

COc1cccc(OC)c1C(=O)N[C@@H]1C(=O)N2[C@@H]1SC(C)(C)[C@@H]2C(=O)O [Methicillin, methicillin]
MIC50 (MRSA [3]; Staphylococcus aureus, 20 h, methicillin alone, MRSA (20 strains)): > 250 µg/mL
antibacterial activity of methicillin on MRSA No.5 (in words) (MRSA [3]; under the presence of flavone): strong on MRSA No.5
MIC (MSSA [4]): 0.98 to 2 µg/mL
MIC50 (MSSA [4]): 2 µg/mL
MIC (MRSA No. 5 [5]; Control (no flavone)): > 1000 µM
MIC (MRSA No. 5 [5]; flavone 0.11 mM (25 μg/ml)): 1000 µM (≈ 380 µg/mL)
MIC (MRSA No. 5 [5]; flavone 0.2 mM): 31.2 µM (≈ 11.9 µg/mL)
MIC (MRSA No. 5 [5]; flavone 0.23 mM (50 μg/ml)): 31.2 µM (≈ 11.9 µg/mL)
MIC (MRSA No. 5 [5]; flavone 0.5 mM): 15.6 µM (≈ 5.93 µg/mL)
antibacterial activity of methicillin against MRSA (in words) (MRSA No. 5 [5]; flavone 0.2 mM): prominently shown
antibacterial activity of methicillin against MRSA (in words) (MRSA No. 5 [5]; in proportion to increase of flavone concentration): increased
MIC (MRSA No. 5 [6]; Concentration of flavone 0 mM): 1000 µM (≈ 380 µg/mL)
MIC (MRSA No. 5 [6]; Concentration of flavone 0.5 mM): 15.6 µM (≈ 5.93 µg/mL)
inhibitory effect on resistance of MRSA No.5 (in words) (MRSA No. 5 [6]; in the presence of flavone 0.5 mM): showed inhibitory effect on resistance of MRSA No.5
MIC50 (MRSA [7]; Antibiotics alone): > 250 µg/mL
MIC50 (MRSA [7]; Antibiotics alone, listed as methicillin): 1000 µg/mL
times as potent as methicillin alone (MRSA [7]; MIC50, methicillin plus 4 μg/ml apigenin vs methicillin alone): about 700 times
MIC50 (MRSA [7]; Staphylococcus aureus, 20 h, antibiotic with Apigenin (4 μg/ml), read-out: MIC50): 15.6 µg/mL
inhibition of β-lactam resistant MRSA / improvement of antibacterial effect with apigenin (in words) (MRSA [7]; apigenin 4 μg/ml or less than its MIC): inhibited β-lactam resistant MRSA
